17 compounds from patent US20250222146A1, “Radiopharmaceuticals Targeting Somatostatin Receptor 2 and Uses Thereof” (RayzeBio, Inc., priority 2023, published 2025) can be followed below.

Each structure is given as a SMILES string. Numbered stars: 1 amine (or outer) side, 2 acyl side, 3 side chain; on linkers, the order of the positions; unused ones are H or OH. Square brackets hold non-standard residues; d marks the D form. Peptide text beside a SMILES is read from it. * marks the point of attachment. ξ: configuration not given here. DOTA(Lu)NH(CH2)6NHCOCH2 = O=C(CN1CCN2CCN3CCN(CC1)CC(=O)[O][Lu]([O]C(=O)C2)[O]C(=O)C3)NCCCCCCNC(=O)C*; X6 = O=C(CN1CCN2CCN3CCN(CC1)CC(=O)[O][Lu]([O]C(=O)C2)[O]C(=O)C3)NCCOCCOCCOCCNC(=O)C*; X3 = O=C(O)CN1CCN(CC(=O)O)CCN(CC(=O)NCCCCCCNC(=O)C*)CCN(CC(=O)O)CC1; dTrp(βS-Me) = C[C@@H](c1c[nH]c2ccccc12)[C@@H](N)C(=O)O; X4 = C[C@@H](c1ccccc1)[C@H](N[*:1])C(=O)[*:2]; Phe(3R-Me) = C[C@H](c1ccccc1)[C@H](N)C(=O)O; X22 = O=C([C@H](Cc1ccc(O)nc1)N[*:1])[*:2]; dNMeW = CN[C@H](Cc1c[nH]c2ccccc12)C(=O)O; NMeF = CN[C@@H](Cc1ccccc1)C(=O)O; 3Pal = N[C@@H](Cc1cccnc1)C(=O)O; 4Pal = N[C@@H](Cc1ccncc1)C(=O)O; ξThr(3R) = C[C@@H](O)C(N)C(=O)O; NMehCys = CN[C@@H](CCS)C(=O)O; NMeK = CN[C@@H](CCCCN)C(=O)O

SSTR2, sequence (P30874 whole entry): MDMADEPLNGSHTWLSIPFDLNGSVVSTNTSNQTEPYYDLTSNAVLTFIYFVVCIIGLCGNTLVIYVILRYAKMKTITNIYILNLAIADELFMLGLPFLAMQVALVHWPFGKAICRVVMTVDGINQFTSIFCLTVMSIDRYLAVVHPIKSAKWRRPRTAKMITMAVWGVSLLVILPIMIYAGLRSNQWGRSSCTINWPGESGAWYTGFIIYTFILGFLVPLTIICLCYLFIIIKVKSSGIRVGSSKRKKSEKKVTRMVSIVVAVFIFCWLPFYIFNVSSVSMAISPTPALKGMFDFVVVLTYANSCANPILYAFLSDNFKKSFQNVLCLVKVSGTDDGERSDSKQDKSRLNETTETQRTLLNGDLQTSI

The first experiment has as its target SSTR2 (Homo sapiens, UniProt P30874). Put plainly: SSTR binding affinity by radioligand binding competition assay ([125I]-Tyr11-Somatostatin, membrane extracts). The following applies: SSTR2 Ki, radioligand competition, [125I]-Tyr11-Somatostatin 0.1 nM, membrane extracts; Ki from IC50 by Cheng Prusoff. (In a radioligand displacement assay an active substance lowers the binding of a labelled ligand.)
A word on the Ki: it is a dissociation constant, usually derived from enzyme kinetics or from competition with a known ligand. `C[C@H](O)[C@@H]1NC(=O)[C@H](CCCCN)NC(=O)[C@@H](Cc2c[nH]c3ccccc23)NC(=O)[C@H](Cc2ccc(O)cc2)NC(=O)[C@H](CCSCC(=O)NCCCCCCNC(=O)CN2CCN3CCN4CCN(CC2)CC(=O)[O][Lu]([O]C(=O)C3)[O]C(=O)C4)N(C)C(=O)[C@H](Cc2ccccc2)NC1=O` [RB-0003464] came in with an inhibitory constant (Ki) of less than 1 nM.

Still in this experiment, the particulars now being: radioligand competition, [125I]-Tyr11-Somatostatin 0.1 nM, membrane extracts; Ki from IC50 by Cheng Prusoff; read-out: SSTR2 Ki.
Regarding `C[C@H](c1ccccc1)[C@@H]1NC(=O)[C@H](CCSCC(=O)NCCCCCCNC(=O)CN2CCN3CCN4CCN(CC2)CC(=O)[O][Lu]([O]C(=O)C3)[O]C(=O)C4)N(C)C(=O)[C@H](Cc2ccccc2)NC(=O)[C@H]([C@@H](C)O)NC(=O)[C@H](CCCCN)NC(=O)[C@@H]([C@@H](C)c2c[nH]c3ccccc23)NC1=O` [RB-0003383] (cyclo(F[NMehCys](DOTA(Lu)NH(CH2)6NHCOCH2)[Phe(3R-Me)][dTrp(βS-Me)]KT)), the Ki is less than 1 nM.
Same read-out and setting: for `C[C@@H](O)[C@@H]1NC(=O)[C@H](CCCCN)NC(=O)[C@@H](Cc2c[nH]c3ccccc23)NC(=O)[C@H](Cc2ccncc2)NC(=O)[C@H](CCSCC(=O)NCCCCCCNC(=O)CN2CCN3CCN4CCN(CC2)CC(=O)[O][Lu]([O]C(=O)C3)[O]C(=O)C4)N(C)C(=O)[C@H](Cc2ccncc2)NC1=O` [RB-0003443] (cyclo([4Pal][NMehCys](DOTA(Lu)NH(CH2)6NHCOCH2)[4Pal][dW]KT)) the value was 10 to 33.3 nM.
On the same count and under the same terms, under `C[C@@H](O)[C@@H]1NC(=O)[C@H](CCCCN)NC(=O)[C@@H](Cc2c[nH]c3ccccc23)NC(=O)[C@H](Cc2ccncc2)NC(=O)[C@H](CCSCC(=O)NCCCCCCNC(=O)CN2CCN3CCN4CCN(CC2)CC(=O)[O][Lu]([O]C(=O)C3)[O]C(=O)C4)N(C)C(=O)[C@H](Cc2cccnc2)NC1=O` [RB-0003445] (cyclo([3Pal][NMehCys](DOTA(Lu)NH(CH2)6NHCOCH2)[4Pal][dW]KT)) stands 3.33 to 10 nM.
Still for that read-out and setting: under `C[C@@H](O)[C@@H]1NC(=O)[C@H](CCCCN)NC(=O)[C@@H](Cc2c[nH]c3ccccc23)NC(=O)[C@H](Cc2ccncc2)NC(=O)[C@H](CCSCC(=O)NCCCCCCNC(=O)CN2CCN3CCN4CCN(CC2)CC(=O)[O][Lu]([O]C(=O)C3)[O]C(=O)C4)N(C)C(=O)[C@H]([C@@H](C)c2ccccc2)NC1=O` [RB-0003447] (cyclo([4Pal][dW]KT[X4][NMehCys](DOTA(Lu)NH(CH2)6NHCOCH2))) stands 3.33 to 10 nM.
As to `C[C@H](c1ccccc1)[C@@H]1NC(=O)[C@H]([C@@H](C)O)NC(=O)[C@H](CCCCN)NC(=O)[C@@H](Cc2c[nH]c3ccccc23)NC(=O)[C@H](Cc2ccncc2)NC(=O)[C@H](CCSCC(=O)NCCCCCCNC(=O)CN2CCN3CCN4CCN(CC2)CC(=O)[O][Lu]([O]C(=O)C3)[O]C(=O)C4)N(C)C1=O` [RB-0003449] (cyclo([4Pal][dW]KT[Phe(3R-Me)][NMehCys](DOTA(Lu)NH(CH2)6NHCOCH2))), the Ki was in the range of 10 to 33.3 nM.
The same measure, in the same setting: for `C[C@@H](O)[C@@H]1NC(=O)[C@H](CCCCN)NC(=O)[C@@H](Cc2c[nH]c3ccccc23)NC(=O)[C@H](Cc2ccncc2)NC(=O)[C@H](CCSCC(=O)NCCCCCCNC(=O)CN2CCN3CCN4CCN(CC2)CC(=O)[O][Lu]([O]C(=O)C3)[O]C(=O)C4)N(C)C(=O)[C@H](Cc2ccc(O)nc2)NC1=O` [RB-0003451] (cyclo([4Pal][dW]KT[X22][NMehCys](DOTA(Lu)NH(CH2)6NHCOCH2))) the value was 3.33 to 10 nM; for `C[C@@H](O)[C@@H]1NC(=O)[C@H](CCCCN)N(C)C(=O)[C@@H](Cc2c[nH]c3ccccc23)N(C)C(=O)[C@H](Cc2ccc(O)cc2)NC(=O)[C@H](CCSCC(=O)NCCCCCCNC(=O)CN2CCN3CCN4CCN(CC2)CC(=O)[O][Lu]([O]C(=O)C3)[O]C(=O)C4)N(C)C(=O)[C@H](Cc2ccccc2)NC1=O` [RB-0003455] (cyclo(F[NMehCys](DOTA(Lu)NH(CH2)6NHCOCH2)Y[dNMeW][NMeK]T)), less than 1 nM; for `C[C@@H](O)[C@@H]1NC(=O)[C@H](CCCCN)NC(=O)[C@@H](Cc2c[nH]c3ccccc23)NC(=O)[C@H](Cc2ccc(O)cc2)NC(=O)[C@H](CCCSCC(=O)NCCCCCNC(=O)CN2CCN3CCN4CCN(CC2)CC(=O)[O][Lu]([O]C(=O)C3)[O]C(=O)C4)N(C)C(=O)[C@H](Cc2ccccc2)NC1=O` [RB-0003482], less than 1 nM.
On to `C[C@@H](O)[C@@H]1NC(=O)[C@H](CCCCN)NC(=O)[C@@H](Cc2c[nH]c3ccccc23)NC(=O)[C@H](Cc2ccc(O)cc2)NC(=O)[C@H](CCCSCC(=O)NCCCCCCNC(=O)CN2CCN3CCN4CCN(CC2)CC(=O)[O][Lu]([O]C(=O)C3)[O]C(=O)C4)N(C)C(=O)[C@H](Cc2ccccc2)NC1=O` [RB-0003484], for which the inhibition constant (Ki) is less than 1 nM.
On the same count and under the same terms, under `C[C@@H](O)[C@@H]1NC(=O)[C@H](CCCCN)NC(=O)[C@@H](Cc2c[nH]c3ccccc23)NC(=O)[C@H](Cc2ccc(O)cc2)NC(=O)[C@H](CCCSCC(=O)NCCOCCNC(=O)CN2CCN3CCN4CCN(CC2)CC(=O)[O][Lu]([O]C(=O)C3)[O]C(=O)C4)N(C)C(=O)[C@H](Cc2ccccc2)NC1=O` [RB-0003486] stands less than 1 nM; under `C[C@@H](O)[C@@H]1NC(=O)[C@H](CCCCN)NC(=O)[C@@H](Cc2c[nH]c3ccccc23)NC(=O)[C@H](Cc2ccncc2)NC(=O)[C@H](CCSCC(=O)NCCOCCOCCOCCNC(=O)CN2CCN3CCN4CCN(CC2)CC(=O)[O][Lu]([O]C(=O)C3)[O]C(=O)C4)N(C)C(=O)[C@H](Cc2ccccc2)NC1=O` [RB-0003504] (cyclo([4Pal][dW]KTF[NMehCys](X6))), 1 to 3.33 nM.
Same read-out and setting: under `C[C@@H](O)[C@@H]1NC(=O)[C@H](CCCCN)NC(=O)[C@@H](Cc2c[nH]c3ccccc23)NC(=O)[C@H](Cc2ccc(O)cc2)NC(=O)[C@H](CCCCCNC(=O)CN2CCN3CCN4CCN(CC2)CC(=O)[O][Lu]([O]C(=O)C3)[O]C(=O)C4)N(C)C(=O)[C@H](Cc2ccccc2)NC1=O` [RB-0004536] stands less than 1 nM; under `C[C@@H](O)C1NC(=O)[C@H](CCCCN)N(C)C(=O)[C@@H](Cc2c[nH]c3ccccc23)N(C)C(=O)[C@H](Cc2ccc(O)cc2)NC(=O)[C@H](CCSCC(=O)NCCCCCCNC(=O)CN2CCN3CCN4CCN(CC2)CC(=O)[O][Lu]([O]C(=O)C3)[O]C(=O)C4)N(C)C(=O)[C@H](Cc2ccccc2)N(C)C1=O` (stereo partly drawn) [RB-0004538] (cyclo([NMeF][NMehCys](DOTA(Lu)NH(CH2)6NHCOCH2)Y[dNMeW][NMeK][ξThr(3R)])), 3.33 to 10 nM.

The experiment is the same for the next values; noted with them: read-out: SSTR2 Ki.
As for `C[C@@H](O)[C@@H]1NC(=O)[C@H](CCCCN)NC(=O)[C@@H]([C@@H](C)c2c[nH]c3ccccc23)NC(=O)[C@H](Cc2ccncc2)NC(=O)[C@H](CCSCC(=O)NCCCCCCNC(=O)CN2CCN(CC(=O)O)CCN(CC(=O)O)CCN(CC(=O)O)CC2)N(C)C(=O)[C@H](Cc2cccnc2)NC1=O` [RB-0003407] (cyclo([3Pal][NMehCys](X3)[4Pal][dTrp(βS-Me)]KT)), the Ki lay within 1 to 3.33 nM.
Still for that read-out and setting: for `C[C@H](c1ccccc1)[C@@H]1NC(=O)[C@H]([C@@H](C)O)NC(=O)[C@H](CCCCN)NC(=O)[C@@H]([C@@H](C)c2c[nH]c3ccccc23)NC(=O)[C@H](Cc2ccncc2)NC(=O)[C@H](CCSCC(=O)NCCCCCCNC(=O)CN2CCN(CC(=O)O)CCN(CC(=O)O)CCN(CC(=O)O)CC2)N(C)C1=O` [RB-0003408] the value was 1 to 3.33 nM; for `C[C@@H](O)[C@@H]1NC(=O)[C@H](CCCCN)NC(=O)[C@@H]([C@@H](C)c2c[nH]c3ccccc23)NC(=O)[C@H](Cc2ccncc2)NC(=O)[C@H](CCSCC(=O)NCCCCCCNC(=O)CN2CCN(CC(=O)O)CCN(CC(=O)O)CCN(CC(=O)O)CC2)N(C)C(=O)[C@H]([C@@H](C)c2ccccc2)NC1=O` [RB-0003409], less than 1 nM.
